Each structure is given as a SMILES string. Where two headings read alike, the source gives them in different places.

Consider 3 compounds from PMC12072186, “A Novel Small Molecule Enhances Stable Dopamine Delivery to the Brain in Models of Parkinson’s Disease” (International Journal of Molecular Sciences, 2025).

The test system of series [1] is MPTP-treated C57BL/6 mice. The series can be described thus: Grip strength test in MPTP-treated mice. Format: in vivo, mouse. To be noted: MPTP 25 mg/kg i.p. day 1–5; treatment day 1–13; vs MPTP vehicle control. As for the experimental part:
(§1) MPTP was injected to male C57BL/6 mice for 5 consecutive days (Figure 4A) to destroy DA neurons, and then the mice were treated with Pegasus alone or Pegasus + Benserazide compared to L-dopa alone or L-Dopa + Benserazide.
(§2) From day 1 to day 5, MPTP was administered to all the groups except Naive at a dose of 25 mg/kg, i.p., QD. Treatment with Pegasus alone (50 mg/kg, i.p., BID), a combination of Pegasus 50 mg/kg, BID + Benserazide 10 mg/kg, QD, or a combination of L-Dopa 10 mg/kg, QD + Benserazide 10 mg/kg, QD or standalone L-Dopa 10 mg/kg, QD, started on day 1 and continued until day 13. On day 13, after the first dose of Pegasus, 4 animals/time point from each group were sacrificed at 0.5, 1, 3, 6, and 12 h, and the blood and brains were collected.
The maximal muscle/grip strength of forelimbs was measured using a strength meter.

For series [2], the system named is MPTP-treated C57BL/6 mice. The series is described as follows: Rotarod test in MPTP-treated mice. The conditions noted are these: MPTP 25 mg/kg i.p. day 1–5; treatment day 1–13; vs MPTP vehicle control. Format: in vivo, mouse. How it is done: as §1, §2
The mice were placed on an accelerating Rotarod (Columbus Instruments, Columbus, OH, USA) equipped with individual timers for each mouse. […] The mice were trained for 3 consecutive days before the final measurement.
Background: Falling from the rotarod earlier than controls is read as motor impairment.

The conditions of series [3]: cited from earlier work.
A short description of series [4]: In vivo metabolism, metabolite profiling in rat brain and plasma (LC-MS/MS). The conditions noted are these: male, Sprague Dawley, intraperitoneal, 50 mg/kg; relative abundance brain vs plasma, rat.
Protocol: In vivo metabolism: We performed a metabolism study (Figure 2) in male Sprague Dawley rats (6–8 weeks old) after a single i.p. injection of 50 mg/kg Pegasus. Plasma and brain samples were serially collected and assessed for the presence of possible phase-I and phase-II metabolites. […] The relative abundance of Pegasus and its metabolites in the brain and plasma was determined at the ionization parameters of the parent.
Metabolite profiling was performed in rat brain and plasma samples to detect phase-I and phase-II metabolites in male Sprague Dawley rats (6–8 weeks old, n = 6) injected (i.p.) with 50 mg/kg Pegasus. The formulation vehicle of Pegasus was 5% DMSO + 35% polyethylene glycol (PEG) 400 + 60% normal saline, and this formulation was used to measure the plasma and brain concentrations of Pegasus and all other metabolites. All samples obtained after Pegasus dosing in rats by the i.p. route of administration were used for metabolite profiling and compared to normal saline. Blood (n = 16 samples) was collected via retro-orbital plexus puncture 0.25, 1, 4, 6, 8, and 24 h pre-dose, and brain sampling was 1, 4, and 24 h post-dose (n = 6 per group). The brain samples were cleaned and perfused, then washed with PBS. The brains (approximately 1.5 g) were transferred to a 50 mL centrifuge tube and 36 mL of ice-cold PBS was added. The mixture was homogenized for about 1–2 min to obtain a uniform suspension. The precipitate was allowed to settle for 30 min at 4 °C, and 15 mL of the middle layer was collected. The plasma and brain samples were processed by the protein precipitation method. In total, 175 μL of acetonitrile was added to 25 μL of plasma samples. The samples were mixed, followed by centrifugation at 4000 rpm for 20 min. The supernatant from the samples was subjected to LC-MS/MS analysis.
The samples were analyzed by liquid chromatography tandem mass spectrometry (HPLC: LC series, Shimadzu, Chiyoda-ku, Tokyo, Japan; mass spectrometer: API4000 Triple Quad mass spectrometer, Applied Biosystems, Carlsbad, CA, USA). The samples (n = 6) were processed using protein precipitation and 1 mM stock solution, prepared in DMSO, spiked into acetonitrile to a final concentration of 4 µM, and processed using liquid chromatography tandem mass spectrometry, employing a linear gradient method using MH+/MH−(Q1) and product ion (MS/MS) scans. The evaluation of the Pegasus metabolites included demethylation, de-hydroxylation, amide cleavage, oxidation, de-hydrogenation, glucuronidation, sulfation, glutathione conjugation, and several other possibilities. The relative abundance of Pegasus and its metabolites in the brain and plasma was determined at the ionization parameters of the parent.
The subject of series [5] is MPTP models of PD. On the set-up: method as in PMID 11724929. The conditions noted are these: cited from earlier work.

Regarding `N[C@@H](Cc1ccc(O)c(O)c1)C(=O)O` [L-Dopa], the Forelimb grip strength result in series [1] was “significantly reversed back to normal levels”. The “Latency to fall (Rotarod)” value in series [2] is “significantly increased latency to fall”. Also, in series [3] (in combination with DDCI), the “Half-life T1/2” value is 60 to 90 min. In series [3] (in combination with dopa-carboxylase enzyme inhibitor (DDCI)), the Levodopa brain entry entry is listed as “up to 10%”. Moreover, in series [3] (levodopa administered alone), the “Half-life T1/2” value was 46.2 to 64.8 min and the “Share of oral dose that reaches the brain” value was 1%. Besides, the “Share reaching the brain” value in series [3] (with DDCI and selective COMT inhibitors) is listed as “up to 40%”.

Take `NC(=O)CCC(=O)NCCc1cc(O)c(O)c(SCC(N)C(=O)O)c1` (stereo not drawn) [M11]: the Kp in series [4] turned out to be 1.31.

Turning to `CN(C)c1ccc(O)c2c1C[C@H]1C[C@H]3[C@H](N(C)C)C(O)=C(C(N)=O)C(=O)[C@@]3(O)C(O)=C1C2=O` [Minocycline], the Striatal cell loss result in series [5] was “prevents striatal cell loss”.

By Kp is commonly meant tissue or fluid exposure divided by exposure in the circulation.
